According to patent US8153806B2, “Synthesis of 4-amino-thalidomide enantiomers” (The Children's Medical Center Corporation, priority 2000, dated 2012):

Assays:
Lewis lung carcinoma = Lewis lung carcinoma metastatic model in C57BL/6 mice; assay type: in vivo; conditions: for Activity: weight gain of lung: 100 mg/kg/day, treatment from day three, vehicle 0.40 g
Protocol: (§1) Antitumor activity has been evaluated for the S(−) and the R(+)4-amino-thalidomide enantiomers as follows. For the HsS cell line, 2 million cells are injected into the tail vein of 8 week old, female, SCID mice. Treatment is initiated after two weeks and continued daily until the mice die or show hind limb paralysis. Results are expressed as mean time to death in treated versus control animals. For the Lewis lung model, 2.5×10(5) cells are injected intravenously into the tail vein of 6-8 week old, male, C57BL/6 mice and treatment is initiated on day three. The time period of treatment is usually 11-15 days in duration. After sacrifice by CO^2 asphyxiation, lungs (where tumors seed and grow) are removed, rinsed in water, patted dry, and weighed. Mean lung weights of age-matched, non-tumor bearing mice are subtracted from the weight of treated, tumor-bearing mice with results expressed as lung weight gain in treated versus control animals. Table 1 summarizes data from in vivo experiments in lung and plasma cell tumor metastatic tumor systems, comparing the antitumor activity of the three enantiomeric preparations of 4-amino thalidomide.

HsSultan B-cell lymphoma = HsSultan B-cell lymphoma metastatic model in SCID mice; assay type: in vivo; conditions: for Activity: mean time to death: daily from two weeks after i.v. cell injection, vehicle 26 days
Protocol: as §1

HS-Sultan cells = test: XTT proliferation assay with HS-Sultan cells; assay type: cell-based; conditions: 72 hour treatment, FIG. 1
Text: The Roche Cell Proliferation Kit II (XTT) is an useful assay for screening the relative efficacy of small molecules. The assay quantitatively determines cellular proliferation in response to agonists and/or antagonists of proliferation. It is based on the cleavage of the yellow tetrazolium salt (XTT) by metabolically active/viable cells to form an orange formazan dye. The formation of the soluble dye allows direct quantification using a scanning mulitwell spectrophotometer. An increase in the number of living cells (resulting from proliferation) results in a greater production of formazan dye which corresponds to an increase in the absorbance value.
When evaluating analogs of thalidomide, or the like, we have employed HS-Sultan cells in an in vitro XTT assay. […] When the treatment/labeling period is complete, the plate is read on a spectrophotometric plate reader at a wavelength of 470 nm and a 650 nm reference wavelength. For individual experiments, the average absorbance values (with background subtracted) for each treatment are plotted against the concentration. A larger absorbance value corresponds to a greater amount of proliferation. A negative control (untreated cells) is used as a point of reference; an absorbance value less than the control reflects inhibition of proliferation. […]

[1] = system: VEGF induced neovascularization; test: Corneal micropocket assay, VEGF pellet; assay type: in vivo, C57BL/6J mice; conditions: 50 mg/kg i.p. daily for six days, n=9 each, P<0.001, FIG. 2
Protocol: (§2) A corneal micropocket assay was performed as described in Kenyon, et al., A Model of Angiogenesis in the Mouse Cornea, Invest. Ophtalmol. & Vis. Sci., 37, 1625-1632 (1996), which is incorporated herein in its entirety. Pellets were used containing 80 ng of bFGF or human recombinat VEGF (R&D Systems, Minneapolis, Minn.) in C57BL/6J mice. […] Differences in VEGF induced neovascularization between S(−)-3APG and control were significant (n=9 each, P<0.001), as were differences between S(−)-3APG and thalidomide (n=9 each, P<0.01).

[2] = system: bFGF induced neovascularization; test: Corneal micropocket assay, bFGF pellet; assay type: in vivo, C57BL/6J mice; conditions: 50 mg/kg i.p. daily for five days, n=9 each, P<0.0001, FIG. 2
Protocol: as §2

With `Nc1cccc2c1C(=O)N(C1CCC(=O)NC1=O)C2=O` (stereo not drawn) [R, S, 4-amino-thalidomide] the “Activity: weight gain of lung” value (Lewis lung carcinoma) was 0.27 g, the “Activity: mean time to death” value (HsSultan B-cell lymphoma; 50 mg/kg/day) was 41 days and the “Activity: mean time to death” value (HsSultan B-cell lymphoma; 200 mg/kg/day) was 28 days.

With `Nc1cccc2c1C(=O)N([C@@H]1CCC(=O)NC1=O)C2=O` [R(+)-4-amino-thalidomide] the “anti-cellular proliferation activity (XTT, treatment over control)” value (HS-Sultan cells) was “show anti-cellular proliferation activity”, the “Activity: weight gain of lung” value (Lewis lung carcinoma) was 0.42 g and the “Activity: mean time to death” value (HsSultan B-cell lymphoma; 50 mg/kg/day) was 37 days. The “Activity: mean time to death” value (HsSultan B-cell lymphoma; 200 mg/kg/day) was 31 days.

With `Nc1cccc2c1C(=O)N([C@H]1CCC(=O)NC1=O)C2=O` [S(−)-4-amino-thalidomide, S(−)-4-Amino-thalidomide] the “difference in VEGF induced neovascularization versus control” value [1] was “significant”, the “anti-cellular proliferation activity (XTT, treatment over control)” value (HS-Sultan cells) was “show anti-cellular proliferation activity” and the “Activity: weight gain of lung” value (Lewis lung carcinoma) was 0.17 g. For the same molecule, the “antitumor activity compared among the enantiomeric preparations of 4-amino thalidomide” value (Lewis lung carcinoma; summary of Table 1) was “most active enantiomer”, the “Activity: mean time to death” value (HsSultan B-cell lymphoma; 50 mg/kg/day) was 47 days and the “Activity: mean time to death” value (HsSultan B-cell lymphoma; 200 mg/kg/day) was 47 days. The “antitumor activity compared among the enantiomeric preparations of 4-amino thalidomide” value (HsSultan B-cell lymphoma; summary of Table 1) was “most active enantiomer” and the “difference in bFGF induced neovascularization versus control” value [2] was “significant”.
